Results: the NIST ThermoML archive (doi:10.1021/je060032n)
± gives the expanded uncertainty stated by the source.

Test: xn = mol fraction of the nth substance listed
Details: 101 kPa, Liquid; for viscosity: Capillary tube (Ostwald / Ubbelohde) method

NCCNCCO [N-(2-aminoethyl)ethanolamine] + O
Details | mass density [kg/m3] | viscosity [mPa·s]
298.15 K, x1 = 0.05 | 1015.65 ± 0.25 | 2.45 ± 0.08
298.15 K, x1 = 0.07 | 1022.28 ± 0.25 | 3.87 ± 0.12
298.15 K, x1 = 0.0999 | 1030.85 ± 0.25 | 6.76 ± 0.22
298.15 K, x1 = 0.1992 | 1047.37 ± 0.28 | 30 ± 0.9
298.15 K, x1 = 0.3 | 1050.66 ± 0.31 | 70.9 ± 2.2
298.15 K, x1 = 0.3997 | 1048.18 ± 0.35 | 104 ± 3
298.15 K, x1 = 0.4991 | 1044.05 ± 0.38 | 121 ± 4
298.15 K, x1 = 0.599 | 1039.62 ± 0.41 | 124 ± 4
298.15 K, x1 = 0.6991 | 1035.48 ± 0.44 | 121 ± 4
298.15 K, x1 = 0.7997 | 1031.83 ± 0.48 | 116 ± 4
298.15 K, x1 = 0.9002 | 1028.28 ± 0.51 | 109 ± 4
298.15 K, x1 = 1 | 1025.28 ± 0.55 | 98.6 ± 3.2
303.15 K, x1 = 0.05 | 1013.65 ± 0.25 | 2.16 ± 0.07
303.15 K, x1 = 0.07 | 1020.01 ± 0.25 | 3.24 ± 0.1
303.15 K, x1 = 0.0999 | 1028.24 ± 0.24 | 5.5 ± 0.18
303.15 K, x1 = 0.1992 | 1044.02 ± 0.28 | 22.6 ± 0.7
303.15 K, x1 = 0.3 | 1047.05 ± 0.31 | 50.4 ± 1.5
303.15 K, x1 = 0.3997 | 1044.5 ± 0.34 | 72.8 ± 2.2
303.15 K, x1 = 0.4991 | 1040.33 ± 0.37 | 83.9 ± 2.6
303.15 K, x1 = 0.599 | 1035.89 ± 0.4 | 87 ± 2.7
303.15 K, x1 = 0.6991 | 1031.74 ± 0.44 | 84.8 ± 2.7
303.15 K, x1 = 0.7997 | 1028.11 ± 0.47 | 82.5 ± 2.6
303.15 K, x1 = 0.9002 | 1024.57 ± 0.51 | 78.1 ± 2.4
303.15 K, x1 = 1 | 1021.53 ± 0.55 | 70.5 ± 2.2
313.15 K, x1 = 0.05 | 1009.22 ± 0.24 | 1.63 ± 0.05
313.15 K, x1 = 0.07 | 1015.13 ± 0.24 | 2.29 ± 0.07
313.15 K, x1 = 0.0999 | 1022.7 ± 0.24 | 3.83 ± 0.12
313.15 K, x1 = 0.1992 | 1037.13 ± 0.27 | 13.5 ± 0.4
313.15 K, x1 = 0.3 | 1039.7 ± 0.3 | 27.8 ± 0.8
313.15 K, x1 = 0.3997 | 1037.01 ± 0.34 | 38.9 ± 1.2
313.15 K, x1 = 0.4991 | 1032.79 ± 0.37 | 44.8 ± 1.4
313.15 K, x1 = 0.599 | 1028.36 ± 0.4 | 46.5 ± 1.4
313.15 K, x1 = 0.6991 | 1024.21 ± 0.43 | 45.7 ± 1.4
313.15 K, x1 = 0.7997 | 1020.57 ± 0.47 | 44.8 ± 1.4
313.15 K, x1 = 0.9002 | 1017.06 ± 0.5 | 44.4 ± 1.4
313.15 K, x1 = 1 | 1014.02 ± 0.54 | 39.4 ± 1.2
323.15 K, x1 = 0.05 | 1004.24 ± 0.23 | 1.26 ± 0.04
323.15 K, x1 = 0.07 | 1009.76 ± 0.23 | 1.75 ± 0.06
323.15 K, x1 = 0.0999 | 1016.8 ± 0.23 | 2.8 ± 0.09
323.15 K, x1 = 0.1992 | 1030.03 ± 0.27 | 8.7 ± 0.3
323.15 K, x1 = 0.3 | 1032.15 ± 0.3 | 16.5 ± 0.5
323.15 K, x1 = 0.3997 | 1029.37 ± 0.33 | 22.5 ± 0.7
323.15 K, x1 = 0.4991 | 1025.13 ± 0.36 | 25.6 ± 0.8
323.15 K, x1 = 0.599 | 1020.71 ± 0.39 | 26.7 ± 0.8
323.15 K, x1 = 0.6991 | 1016.59 ± 0.43 | 26.4 ± 0.8
323.15 K, x1 = 0.7997 | 1012.96 ± 0.46 | 26 ± 0.8
323.15 K, x1 = 0.9002 | 1009.48 ± 0.5 | 26 ± 0.8
323.15 K, x1 = 1 | 1006.44 ± 0.53 | 23.4 ± 0.7
333.15 K, x1 = 0.05 | 998.75 ± 0.23 | 1.01 ± 0.03
333.15 K, x1 = 0.07 | 1003.89 ± 0.22 | 1.38 ± 0.04
333.15 K, x1 = 0.0999 | 1010.53 ± 0.22 | 2.05 ± 0.06
333.15 K, x1 = 0.1992 | 1022.69 ± 0.26 | 5.9 ± 0.2
333.15 K, x1 = 0.3 | 1024.44 ± 0.29 | 10.5 ± 0.3
333.15 K, x1 = 0.3997 | 1021.57 ± 0.32 | 13.8 ± 0.4
333.15 K, x1 = 0.4991 | 1017.35 ± 0.35 | 15.8 ± 0.5
333.15 K, x1 = 0.599 | 1012.96 ± 0.39 | 16.5 ± 0.5
333.15 K, x1 = 0.6991 | 1008.88 ± 0.42 | 16.5 ± 0.5
333.15 K, x1 = 0.7997 | 1005.3 ± 0.46 | 16.4 ± 0.5
333.15 K, x1 = 0.9002 | 1001.84 ± 0.49 | 16.5 ± 0.5
333.15 K, x1 = 1 | 998.83 ± 0.53 | 14.8 ± 0.5
343.15 K, x1 = 0.05 | 992.77 ± 0.23 | 0.839 ± 0.026
343.15 K, x1 = 0.07 | 997.34 ± 0.22 | 1.11 ± 0.03
343.15 K, x1 = 0.0999 | 1003.89 ± 0.22 | 1.6 ± 0.05
343.15 K, x1 = 0.1992 | 1015.09 ± 0.26 | 4.2 ± 0.1
343.15 K, x1 = 0.3 | 1016.53 ± 0.29 | 7 ± 0.2
343.15 K, x1 = 0.3997 | 1013.6 ± 0.32 | 9.1 ± 0.3
343.15 K, x1 = 0.4991 | 1009.42 ± 0.35 | 10.3 ± 0.3
343.15 K, x1 = 0.599 | 1005.1 ± 0.38 | 10.8 ± 0.3
343.15 K, x1 = 0.6991 | 1001.06 ± 0.41 | 10.8 ± 0.3
343.15 K, x1 = 0.7997 | 997.54 ± 0.45 | 10.8 ± 0.3
343.15 K, x1 = 0.9002 | 994.11 ± 0.49 | 10.7 ± 0.3
343.15 K, x1 = 1 | 991.15 ± 0.53 | 10.1 ± 0.3
